# Data published in patent publication US20190292243A1, “PEPTIDES AND METHODS OF USE THEREOF” (Fred Hutchinson Cancer Research Center, priority 2016, published 2019).
# Read-outs that look alike come from different tables or passages of the source. Marks after values point to notes of the source that are not given here. Bridge positions count the residues as written; N and C are the ends. Ends that are not written are not given here. Peptide text beside a SMILES is read from it. * marks the point of attachment. Me2Gly = CN(C)CC(=O)*
# How the values were obtained:
# [1] = Experimental: (§1) This example describes analysis of the pharmacokinetics of a peptide of the disclosure. A ^14C radiolabeled peptide of SEQ ID NO: 15 (SEQ ID NO: 15-r) was administered to 6-10 week old female Harlan athymic mice at a dose of 2 μCi/33 nmol via intravenous administration, intraperitoneal administration, oral administration or subcutaneous administration. At each time point, urine was collected by massaging the abdomen and mice were subsequently euthanized by CO2 asphyxiation. Blood was collected by cardiac exsanguination following cessation of respiratory movement. Plasma was separated by centrifugation and frozen until further analysis. Radioactivity in biological samples (plasma or urine) was detected by liquid scintillation counting on a Beckman Scintillation counter at a read time of 10 minutes. For HPLC evaluation, urine and plasma samples were diluted 20 μl in 80 μl and analyzed on an Agilent analytical HPLC equipped with an inline Raytest scintillation detector. Pharmacokinetics analysis was performed using the PKSolver 2 compartment IV or extravascular bolus.
# SEQ ID NO: 15-r was spiked in as a positive control for intact peptide and Glycine was spiked in as a negative control for metabolized peptide. […] HPLC was used to separate peptide fragments and liquid scintillation counting was used to quantify the radioactive signal of intact peptides or peptide fragment. […] SEQ ID NO: 15-r was spiked in as a positive control for intact peptide and Glycine was spiked in as a negative control for metabolized peptide. […] SEQ ID NO: 15-r was spiked in as a positive control for intact peptide and Glycine was spiked in as a negative control for metabolized peptide. […] SEQ ID NO: 15-r was spiked in as a positive control for intact peptide and Glycine was spiked in as a negative control for metabolized peptide.
# [2] = remark: listed apart in the source
# Experimental: as §1
# HPLC was used to separate peptide fragments and liquid scintillation counting was used to quantify the radioactive signal of intact peptides or peptide fragment. SEQ ID NO: 15-r was spiked in as a positive control for intact peptide and Glycine was spiked in as a negative control for metabolized peptide. […] SEQ ID NO: 15-r was spiked in as a positive control for intact peptide and Glycine was spiked in as a negative control for metabolized peptide. […] SEQ ID NO: 15-r was spiked in as a positive control for intact peptide and Glycine was spiked in as a negative control for metabolized peptide. […] SEQ ID NO: 15-r was spiked in as a positive control for intact peptide and Glycine was spiked in as a negative control for metabolized peptide.
# [3] = Pharmacokinetics of radiolabeled peptide in plasma by liquid scintillation counting (PKSolver 2 compartment); format: in vivo, female Harlan athymic nude mice; parameters: AUC0-inf (area under the curve): unit not given here; conditions: 2 μCi/33 nmol
# HeLa cells = experiment: Uptake of peptide-AF647 conjugate in HeLa cells (fluorescence microscopy, flow cytometry, endocytosis inhibitors); format: cell-based; conditions: for effect of endocytic inhibitors on uptake of SEQ ID NO: 15-A: SEQ ID NO: 15-A at 4 μM, flow cytometry, pre-treatment of HeLa cells
# Experimental: SEQ ID NO: 15-A and HIV-Tat-FITC, an HIV-Tat protein conjugated to a FITC fluorophore, were each dosed in HeLa cells at a concentration of 20 μM. The fluorescence image was taken on a Nikon Live microscope at 40× magnification, four hours after cells were dosed with SEQ ID NO: 15-A and HIV-Tat-FITC. The green fluorescence (FITC) and the red fluorescence (AF647) were located in different punctate regions, showing that the two molecules are localized in different vesicles.
# Fluorescence was measured via flow cytometry and quantified to determine uptake of the peptide conjugate in cells.
# SEQ ID NO: 15-A was dosed at a concentration of […] HIV-Tat-FITC was dosed at a concentration of 1 mM, and Dextran-Texas Red was dosed at a concentration of 25 mg/ml.
# [4] = Folding of manufactured peptide variants (HPLC traces); format: physicochemical
# Source text: Generally, the NMR solution structures of related structural homologs can be used to inform mutational strategies that may improve the folding, stability, manufacturability, while maintaining a particular biological function. They can be used to predict the 3D pharmacophore of a group of structurally homologous scaffolds, as wells as to predict possible graft regions of related proteins to create chimeras with improved properties. The general strategy for producing homologs can include identification of a charged surface patch of a protein, mutation of critical amino acid positions and loops, and testing of sequences. This strategy can be used to design peptides with improved properties or to correct deleterious mutations that complicate folding and manufacturability. […] Accordingly, three amino acid positions (R11, R13, and R31) were chosen to be individually mutated to improve stability, yielding peptides of SEQ ID NO: 18, SEQ ID NO: 20, and SEQ ID NO: 25.
# This example illustrates the modification of a function of a peptide. A peptide of SEQ ID NO: 15 was modified at positively charge patches to give a peptide of SEQ ID NO: 1 and a peptide of SEQ ID NO: 2. The modified peptides were expressed recombinantly. Mutations at positively charged patches of a peptide of SEQ ID NO: 15 were not well tolerated as indicated by the lack of folding purity indicated by the HPLC traces in FIG. 15.
# [5] = IP, 3 hr, 0 = no intact peptide was measured
compound,measurement,setting,value
"CC(C)C[C@@H]1NC(=O)[C@H]([C@@H](C)O)NC(=O)[C@@H]2CSSC[C@@H]3NC(=O)[C@H]([C@@H](C)O)NC(=O)[C@H](CC(N)=O)NC(=O)[C@H](CSSC[C@@H](C(=O)N4CCC[C@H]4C(=O)N[C@@H](CC(N)=O)C(=O)N[C@@H](CCC(N)=O)C(=O)O)NC(=O)[C@H](C)NC(=O)[C@H](CCCNC(=N)N)NC1=O)NC(=O)[C@H](CCCNC(=N)N)NC(=O)[C@H](CC(=O)O)NC(=O)[C@H](CCCNC(=N)N)NC(=O)[C@H](Cc1ccccc1)NC(=O)[C@H]([C@@H](C)O)NC(=O)[C@H](CCCNC(=N)N)NC(=O)CNC(=O)[C@@H]1CCCN1C(=O)[C@H](CCC(=O)O)NC(=O)[C@@H](NC(=O)[C@H](CO)NC(=O)[C@H](CO)NC(=O)CN(C)C)CSSC[C@H](NC(=O)[C@H](CCCNC(=N)N)NC3=O)C(=O)NCC(=O)N[C@@H](C)C(=O)N[C@@H](CC(=O)O)C(=O)NCC(=O)N[C@@H](CCCNC(=N)N)C(=O)N[C@@H](CO)C(=O)N[C@@H](C)C(=O)N[C@@H](C)C(=O)N2 [SEQ ID NO: 15-r] (Me2Gly-SSCEPGRTFRDRCNTCRCGADGRSAACTLRACPNQ-OH; disulfide 3-18, 13-32, 16-27 (inferred); N-terminus and C-terminus assumed)",percentage of AUC of intact peptide of the total radioactive signal (total AUC) in urine,"[1]; IP, 5 min",60%
same,percentage of AUC of intact peptide of the total radioactive signal (total AUC) in urine,"[1]; IP, 30 min",49%
same,percentage of AUC of intact peptide of the total radioactive signal (total AUC) in urine,[1]; [5],0%
same,percentage of AUC of intact peptide of the total radioactive signal (total AUC) in urine,"[1]; IP, 24 hr, 0 = no intact peptide was measured",0%
same,percentage of AUC of intact peptide of the total radioactive signal (total AUC) in urine,"[1]; IP, 48 hr, 0 = no intact peptide was measured",0%
same,percentage of AUC of intact peptide of the total radioactive signal (total AUC) in urine,"[1]; IV, 5 min",77%
same,percentage of AUC of intact peptide of the total radioactive signal (total AUC) in urine,"[1]; IV, 30 min",47%
same,percentage of AUC of intact peptide of the total radioactive signal (total AUC) in urine,"[1]; IV, 1 hr",43%
same,percentage of AUC of intact peptide of the total radioactive signal (total AUC) in urine,"[1]; IV, 3 hr, 0 = no intact peptide was measured",0%
same,percentage of AUC of intact peptide of the total radioactive signal (total AUC) in urine,"[1]; IV, 8 hr, 0 = no intact peptide was measured",0%
same,percentage of AUC of intact peptide of the total radioactive signal (total AUC) in urine,"[1]; IV, 24 hr, 0 = no intact peptide was measured",0%
same,percentage of AUC of intact peptide of the total radioactive signal (total AUC) in urine,"[1]; PO, 3 hr, 0 = no intact peptide was measured",0%
same,percentage of AUC of intact peptide of the total radioactive signal (total AUC) in urine,"[1]; PO, 8 hr, 0 = no intact peptide was measured",0%
same,percentage of AUC of intact peptide of the total radioactive signal (total AUC) in urine,"[1]; PO, 48 hr, 0 = no intact peptide was measured",0%
same,percentage of AUC of intact peptide of the total radioactive signal (total AUC) in urine,"[1]; SC, 5 min, 0 = no intact peptide was measured",0%
same,percentage of AUC of intact peptide of the total radioactive signal (total AUC) in urine,"[1]; SC, 30 min, 0 = no intact peptide was measured",0%
same,percentage of AUC of intact peptide of the total radioactive signal (total AUC) in urine,"[1]; SC, 1 hr, 0 = no intact peptide was measured",0%
same,percentage of AUC of intact peptide of the total radioactive signal (total AUC) in urine,"[1]; SC, 8 hr, 0 = no intact peptide was measured",0%
same,percentage of AUC of intact peptide of the total radioactive signal (total AUC) in urine,"[1]; SC, 48 hr, 0 = no intact peptide was measured",0%
same,time by which intact peptide in urine dropped to baseline,[1]; intraperitoneal injection,≤ 3 h
same,time by which intact peptide signal in urine reached baseline,[1]; intravenous injection,≤ 3 h
same,intact peptide observed in urine,[1]; oral administration,intact peptide was not observed in urine
same,intact peptide observed in urine,[1]; subcutaneous administration,intact peptide was not observed in urine
same,percentage of AUC of intact peptide of the total radioactive signal (total AUC) in plasma,"[2]; IP, 5 min",94%
same,percentage of AUC of intact peptide of the total radioactive signal (total AUC) in plasma,"[2]; IP, 30 min",100%
same,percentage of AUC of intact peptide of the total radioactive signal (total AUC) in plasma,"[2]; IP, 1 hr",66%
same,percentage of AUC of intact peptide of the total radioactive signal (total AUC) in plasma,[2]; [5],0%
same,percentage of AUC of intact peptide of the total radioactive signal (total AUC) in plasma,"[2]; IV, 5 min",92%
same,percentage of AUC of intact peptide of the total radioactive signal (total AUC) in plasma,"[2]; IV, 30 min",100%
same,percentage of AUC of intact peptide of the total radioactive signal (total AUC) in plasma,"[2]; PO, 8 hr",45%
same,percentage of AUC of intact peptide of the total radioactive signal (total AUC) in plasma,"[2]; SC, 5 min",100%
same,percentage of AUC of intact peptide of the total radioactive signal (total AUC) in plasma,"[2]; SC, 30 min",88%
same,percentage of AUC of intact peptide of the total radioactive signal (total AUC) in plasma,"[2]; SC, 1 hr",50%
same,time by which intact peptide signal in plasma reached baseline,[2]; intraperitoneal injection,≤ 3 h
same,time by which intact peptide signal in plasma reached baseline,[2]; intravenous injection,≤ 3 h
same,intact peptide or breakdown products observed in plasma,[2]; oral administration,neither intact peptide or breakdown products of the peptide were observed in plasma
same,AUC0-inf (area under the curve),[3]; IP,25.59
same,CL/F (drug clearance over time),[3]; IP,1.28 nmol/(pmol/μl)/h
same,Cmax (peak drug concentration),[3]; IP,5.23 pmol/µL
same,AUC0-inf (area under the curve),[3]; IV,19.08
same,CL/F (drug clearance over time),[3]; IV,1.73 nmol/(pmol/μl)/h
same,Cmax (peak drug concentration),[3]; IV,33* pmol/μl
same,AUC0-inf (area under the curve),[3]; Oral,46
same,CL/F (drug clearance over time),[3]; Oral,0.53 nmol/(pmol/μl)/h
same,Cmax (peak drug concentration),[3]; Oral,0.59 pmol/µL
same,AUC0-inf (area under the curve),[3]; SC,171
same,CL/F (drug clearance over time),[3]; SC,0.144 nmol/(pmol/μl)/h
same,Cmax (peak drug concentration),[3]; SC,8.57 pmol/µL
CCCCC[C@@H](O)[C@H]1C(=O)O[C@H](C)[C@@H](O)/C=C/C=C/C=C/C=C/C=C(\C)[C@@H](O)C[C@H](O)C[C@H](O)C[C@H](O)C[C@H](O)C[C@H](O)C[C@@H]1O [filipin],effect of endocytic inhibitors on uptake of SEQ ID NO: 15-A,HeLa cells,inhibit the uptake of SEQ ID NO: 15-A
GSSCEPGRTFADACNTCRCGADGRSAACTLAACPNQ [SEQ ID NO: 2],folding of the manufactured peptide,[4],unable to fold
GSSCEPGRTFEDECNTCRCGADGRSAACTLEACPNQ [SEQ ID NO: 1],folding of the manufactured peptide,[4],unable to fold
GSSCEPGRTFEDRCNTCRCGADGRSAACTLRACPNQ [SEQ ID NO: 18],folding of the manufactured peptide,[4],Improved folding
GSSCEPGRTFRDECNTCRCGADGRSAACTLRACPNQ [SEQ ID NO: 20],folding of the manufactured peptide,[4],Improved folding
GSSCEPGRTFRDRCNTCRCGADGRSAACTLEACPNQ [SEQ ID NO: 25],folding of the manufactured peptide,[4],Improved folding
SEQ ID NO: 15-A (GSSCEPGRTFRDRCNTCRCGADGRSAACTLRACPNQ; cysteine pairing not given here; also: conjugate A),internalization by HeLa cells (fluorescence image),"HeLa cells; 20 μM, four hours after dosing, 40×",internalized by HeLa cells
methyl-beta-cyclodextrin [methyl-beta-cyclodextrin (MBCD)],inhibition of uptake of SEQ ID NO: 15-A relative to dextran and HIV-Tat,HeLa cells; 2 mM MBCD pre-treatment of HeLa cells,"inhibits uptake of SEQ ID NO: 15-A to a greater extent than dextran, a fluid-phase marker, or HIV-Tat"
same,effect of endocytic inhibitors on uptake of SEQ ID NO: 15-A,HeLa cells,inhibit the uptake of SEQ ID NO: 15-A
